The test system of test [1] is Mus musculus. As to the kind of experiment: In vivo activity tested against C3H mice bearing colon adenocarcinoma -38(colon-38) tumor measured as activity rating at 466 mg/kg (po). The test is classed as functional.
In test [2] the test system is Mus musculus. As to the kind of experiment: In vivo activity tested against C3H mice bearing colon adenocarcinoma -38(colon-38) tumor measured as body weight loss at 466 mg/kg (po). In kind it is functional.
For test [3], the system named is Mus musculus. As to the kind of experiment: In vivo activity tested against C3H mice bearing colon adenocarcinoma -38(colon-38) tumor measured as % treated/control calculated at 753 mg/kg (po). In kind it is functional.
Test [4] relates to Mus musculus. The test can be described thus: In vivo activity tested against C3H mice bearing colon adenocarcinoma -38(colon-38) tumor measured as log Kill value was based on tumors that grew at 753 mg/kg (po). The test is classed as functional, organism-based. On the set-up: dose 753 mg/kg.
Test [5] concerns Mus musculus. As to the kind of experiment: In vivo activity tested against C3H mice bearing colon adenocarcinoma -38(colon-38) tumor measured as body weight loss at 753 mg/kg (po). In kind it is functional.
Test [6] concerns Mus musculus. The test can be described thus: In vivo activity tested against C3H mice bearing colon adenocarcinoma -38(colon-38) tumor, measured as cures at 466 mg/kg (po); 3/5 cures. In kind it is functional.
Test [7] has as its system Mus musculus. As to the kind of experiment: In vivo activity tested against C3H mice bearing colon adenocarcinoma -38(colon-38) tumor measured as % treated/control calculated at 466 mg/kg (po). In kind it is functional.
Test [8] deals with Mus musculus. The test can be described thus: In vivo activity tested against C3H mice bearing colon adenocarcinoma -38(colon-38) tumor, measured as cures at 753 mg/kg (po); 2/5 cures. In kind it is functional.
Test [9] deals with Mus musculus. As to the kind of experiment: In vivo activity tested against C3H mice bearing colon adenocarcinoma -38(colon-38) tumor measured as activity rating at 753 mg/kg (po). In kind it is functional.
For test [10], the system named is Mus musculus. The test can be described thus: In vivo activity tested against C3H mice bearing colon adenocarcinoma -38(colon-38) tumor measured as log Kill value was based on tumors that grew at 466 mg/kg (po). Also on record: dose 466 mg/kg. The test is classed as functional, organism-based.

Structures are written as SMILES.

As a reminder, the T/C is the ratio of treated to control. Take `CC(Oc1ccc(Oc2cnc3ccc(Br)cc3n2)cc1)C(=O)O` (stereo not given): the Activity rating in the test on Mus musculus [1] is reported as 2.8; in the test on Mus musculus [9], over 2.8. Also, the Body weight loss is reported as -7% in the test with Mus musculus [2] and -12% with Mus musculus [5]. Besides, the T/C in the test on Mus musculus [3] and in the test on Mus musculus [7] was 0% each time. Moreover, the values for the Log kill in the test with Mus musculus [4] and with Mus musculus [10] were 3 and 2.1, respectively. For the same molecule, the values for the Cures in the test with Mus musculus [6] and in the test on Mus musculus [8] were 3 and 2, respectively.
